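Tested at 5 concentrations; 48 h exposure; 96-well plates; endpoints linearly interpolated, else capped at highest concentration. GI50: concentration for 50% inhibition of growth. TGI: total growth inhibition.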
Tests used:
Test in all cases: NCI anticancer screen, dose series, 48 h
[1] = test system: 786-0 renal
[2] = test system: A498 renal
[3] = test system: A549 NSCLC
[4] = test system: ACHN renal
[5] = test system: BT-549 breast
[6] = test system: CAKI-1 renal
[7] = test system: CCRF-CEM leukemia
[8] = test system: COLO 205 colon
[9] = test system: DU-145 prostate
[10] = test system: HCC-2998 colon
[11] = test system: HCT-116 colon
[12] = test system: HL-60(TB) leukemia
[13] = test system: HOP-62 NSCLC
[14] = test system: HOP-92 NSCLC
[15] = test system: HS 578T breast
[16] = test system: HT29 colon
[17] = test system: IGROV1 ovarian
[18] = test system: K-562 leukemia
[19] = test system: KM12 colon
[20] = test system: M14 melanoma
[21] = test system: MALME-3M melanoma
[22] = test system: MCF7 breast
[23] = test system: MDA-MB-231 breast
[24] = test system: MDA-MB-435
[25] = test system: MOLT-4 leukemia
[26] = test system: NCI-H226 lung
[27] = test system: NCI-H23 lung
[28] = test system: NCI-H460 lung
[29] = test system: NCI/ADR-RES ovarian
[30] = test system: OVCAR-3 ovarian
[31] = test system: OVCAR-4 ovarian
[32] = test system: OVCAR-5 ovarian
[33] = test system: OVCAR-8 ovarian
[34] = test system: PC-3 prostate
[35] = test system: RPMI-8226 leukemia
[36] = test system: RXF 393 renal
[37] = test system: SF-268 CNS
[38] = test system: SF-295 CNS
[39] = test system: SF-539 CNS
[40] = test system: SK-MEL-2 melanoma
[41] = test system: SK-MEL-28 melanoma
[42] = test system: SK-MEL-5 melanoma
[43] = test system: SK-OV-3 ovarian
[44] = test system: SN12C renal
[45] = test system: SNB-19 CNS
[46] = test system: SNB-75 CNS
[47] = test system: SR leukemia
[48] = test system: SW-620 colon
[49] = test system: T-47D breast
[50] = test system: TK-10 renal
[51] = test system: U251 CNS
[52] = test system: UACC-257 melanoma
[53] = test system: UACC-62 melanoma
[54] = test system: UO-31 renal
[55] = test system: EKVX NSCLC
[56] = test system: HCT-15 colon
[57] = test system: LOX IMVI melanoma
[58] = test system: NCI-H522 lung

Structure (SMILES): C[C@]12CC[C@@H]3c4ccc(O)cc4CC[C@H]3[C@@H]1CC[C@@H]2NS(=O)(=O)c1ccc(Br)cc1
- GI50 [1]: 3.07 µM
- TGI [1]: 8.86 µM
- GI50 [2]: 1610 nM
- TGI [2]: 3.7 µM
- GI50 [3]: 2890 nM
- TGI [3]: 11.1 µM
- GI50 [4]: 3.17 µM
- TGI [4]: 11.1 µM
- GI50 [5]: 2270 nM
- TGI [5]: 4.72 µM
- GI50 [6]: 3.12 µM
- TGI [6]: 10.2 µM
- GI50 [7]: 3.14 µM
- TGI [7]: > 100 µM
- GI50 [8]: 2120 nM
- TGI [8]: 4.04 µM
- GI50 [9]: 3.91 µM
- TGI [9]: 12.7 µM
- GI50 [10]: 3.21 µM
- TGI [10]: 10.5 µM
- GI50 [11]: 2290 nM
- TGI [11]: 5.16 µM
- GI50 [12]: 2770 nM
- TGI [12]: 8.5 µM
- GI50 [13]: 2770 nM
- TGI [13]: 6.14 µM
- GI50 [14]: 1760 nM
- TGI [14]: 4.93 µM
- GI50 [15]: 2050 nM
- TGI [15]: 6.15 µM
- GI50 [16]: 2310 nM
- TGI [16]: 4.63 µM
- GI50 [17]: 3.85 µM
- TGI [17]: 12.1 µM
- GI50 [18]: 3.08 µM
- TGI [18]: > 100 µM
- GI50 [19]: 1970 nM
- TGI [19]: 3.89 µM
- GI50 [20]: 2140 nM
- TGI [20]: 4.66 µM
- GI50 [21]: 1930 nM
- TGI [21]: 4.36 µM
- GI50 [22]: 2260 nM
- TGI [22]: 4.64 µM
- GI50 [23]: 2010 nM
- TGI [23]: 4.62 µM
- GI50 [24]: 1840 nM
- TGI [24]: 3.97 µM
- GI50 [25]: 3.26 µM
- TGI [25]: 28.7 µM
- GI50 [26]: 2040 nM
- TGI [26]: 4.17 µM
- GI50 [27]: 3.44 µM
- TGI [27]: 15.5 µM
- GI50 [28]: 2150 nM
- TGI [28]: 4.81 µM
- GI50 [29]: 2810 nM
- TGI [29]: 8.79 µM
- GI50 [30]: 2180 nM
- TGI [30]: 4.43 µM
- GI50 [31]: 3.01 µM
- TGI [31]: 12.4 µM
- GI50 [32]: 2310 nM
- TGI [32]: 6.03 µM
- GI50 [33]: 3.14 µM
- TGI [33]: 11.3 µM
- GI50 [34]: 2600 nM
- TGI [34]: 13.8 µM
- GI50 [35]: 2680 nM
- TGI [35]: 7.37 µM
- GI50 [36]: 2430 nM
- TGI [36]: 4.99 µM
- GI50 [37]: 3.43 µM
- TGI [37]: 13.4 µM
- GI50 [38]: 1750 nM
- TGI [38]: 3.29 µM
- GI50 [39]: 2040 nM
- TGI [39]: 3.92 µM
- GI50 [40]: 2350 nM
- TGI [40]: 5.3 µM
- GI50 [41]: 2190 nM
- TGI [41]: 5.09 µM
- GI50 [42]: 1760 nM
- TGI [42]: 3.22 µM
- GI50 [43]: 4.53 µM
- TGI [43]: 13.6 µM
- GI50 [44]: 1790 nM
- TGI [44]: 3.5 µM
- GI50 [45]: 3.94 µM
- TGI [45]: 16.9 µM
- GI50 [46]: 2100 nM
- TGI [46]: 9.15 µM
- GI50 [47]: 3.37 µM
- TGI [47]: 39.3 µM
- GI50 [48]: 3.35 µM
- TGI [48]: 13.1 µM
- GI50 [49]: 3.35 µM
- TGI [49]: 10.3 µM
- GI50 [50]: 3.84 µM
- TGI [50]: 12.2 µM
- GI50 [51]: 2890 nM
- TGI [51]: 10.6 µM
- GI50 [52]: 2560 nM
- TGI [52]: 8.12 µM
- GI50 [53]: 1760 nM
- TGI [53]: 3.68 µM
- GI50 [54]: 1760 nM
- TGI [54]: 4.35 µM

Structure (SMILES): CN(CCO)Cc1ncccc1O
- TGI [2]: > 100 µM
- TGI [3]: > 100 µM
- TGI [4]: > 100 µM
- TGI [5]: > 100 µM
- TGI [6]: > 100 µM
- TGI [7]: > 100 µM
- TGI [8]: > 100 µM
- TGI [9]: > 100 µM
- TGI [55]: > 100 µM
- TGI [56]: > 100 µM
- TGI [12]: > 100 µM
- TGI [13]: > 100 µM
- TGI [14]: > 100 µM
- TGI [15]: > 100 µM
- TGI [16]: > 100 µM
- TGI [17]: > 100 µM
- TGI [18]: > 100 µM
- TGI [19]: > 100 µM
- TGI [57]: > 100 µM
- TGI [20]: > 100 µM
- TGI [21]: > 100 µM
- TGI [22]: > 100 µM
- TGI [23]: > 100 µM
- TGI [24]: > 100 µM
- TGI [25]: 89.5 µM
- TGI [26]: > 100 µM
- TGI [27]: > 100 µM
- TGI [28]: > 100 µM
- TGI [58]: > 100 µM
- TGI [29]: > 100 µM
- TGI [30]: > 100 µM
- TGI [31]: > 100 µM
- TGI [32]: > 100 µM
- TGI [33]: > 100 µM
- TGI [34]: > 100 µM
- TGI [35]: > 100 µM
- TGI [36]: > 100 µM
- TGI [37]: > 100 µM
- TGI [38]: > 100 µM
- TGI [39]: > 100 µM
- TGI [40]: > 100 µM
- TGI [41]: > 100 µM
- TGI [42]: > 100 µM
- TGI [43]: > 100 µM
- TGI [45]: > 100 µM
- TGI [46]: > 100 µM
- TGI [47]: > 100 µM
- TGI [48]: > 100 µM
- TGI [49]: > 100 µM
- TGI [50]: > 100 µM
- TGI [51]: > 100 µM
- TGI [52]: > 100 µM
- TGI [53]: > 100 µM
- TGI [54]: > 100 µM
